Data as given in the supplement of paper PMC10307832.

Tests used:
Test in all cases: relative viability (nuclei count vs DMSO), 5 days (fraction); higher = more cells survive
NCI-H1650 = system: NCI-H1650
Outline: (§1)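 Cells from lung cancer lines were seeded into 1536-well plates and, one day later, dosed by pin tool. Treatments were either a single drug or a fixed dose of an anchor drug with five library-drug doses (not always all listed) in √10 steps. After 5 days, nuclei were stained in a one-step fixation (final 0.05% Triton X-100, 1% formaldehyde, 1 ug/ml Hoechst) and counted on 4× images, and relative viability is the treated-to-vehicle nuclei ratio, as the median of duplicate plates.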

NCI-H1734 = system: NCI-H1734
Outline: as §1

NCI-H1915 = system: NCI-H1915
Outline: as §1

NCI-H2023 = system: NCI-H2023
Outline: as §1

NCI-H2087 = system: NCI-H2087
Outline: as §1

NCI-H3122 = system: NCI-H3122
Outline: as §1

NCI-H358 = system: NCI-H358
Outline: as §1

NCI-H596 = system: NCI-H596
Outline: as §1

NCI-H650 = system: NCI-H650
Outline: as §1

NCI-H661 = system: NCI-H661
Outline: as §1

NCI-H838 = system: NCI-H838
Outline: as §1

SK-MES-1 = system: SK-MES-1
Outline: as §1

O=C(O)CCCCC(CCSCc1ccccc1)SCc1ccccc1 (configuration not stated) [CPI-613] + O=C(c1cc(Cc2n[nH]c(=O)c3ccccc23)ccc1F)N1CCN(C(=O)C2CC2)CC1 [Olaparib] (partner 8 µM)
relative viability (NCI-H1650; first compound 158.11 µM): 0.416
relative viability (NCI-H1650; first compound 500 µM): 0.0224
relative viability (NCI-H1734; first compound 5 µM): 0.584
relative viability (NCI-H1734; first compound 15.81 µM): 0.596
relative viability (NCI-H1734; first compound 50 µM): 0.516
relative viability (NCI-H1734; first compound 158.11 µM): 0.373
relative viability (NCI-H1734; first compound 500 µM): 0.173
relative viability (NCI-H1915; first compound 5 µM): 0.25
relative viability (NCI-H1915; first compound 15.81 µM): 0.258
relative viability (NCI-H1915; first compound 50 µM): 0.265
relative viability (NCI-H1915; first compound 158.11 µM): 0.124
relative viability (NCI-H1915; first compound 500 µM): 0.0608
relative viability (NCI-H2023; first compound 5 µM): 0.47
relative viability (NCI-H2023; first compound 15.81 µM): 0.425
relative viability (NCI-H2023; first compound 50 µM): 0.41
relative viability (NCI-H2023; first compound 158.11 µM): 0.134
relative viability (NCI-H2023; first compound 500 µM): 0.009
relative viability (NCI-H2087; first compound 5 µM): 0.517
relative viability (NCI-H2087; first compound 15.81 µM): 0.522
relative viability (NCI-H2087; first compound 50 µM): 0.627
relative viability (NCI-H2087; first compound 158.11 µM): 0.0403
relative viability (NCI-H2087; first compound 500 µM): 0.0077
relative viability (NCI-H3122; first compound 5 µM): 0.672
relative viability (NCI-H3122; first compound 15.81 µM): 0.589
relative viability (NCI-H3122; first compound 50 µM): 0.574
relative viability (NCI-H3122; first compound 158.11 µM): 0.442
relative viability (NCI-H3122; first compound 500 µM): 0.609
relative viability (NCI-H358; first compound 5 µM): 0.532
relative viability (NCI-H358; first compound 15.81 µM): 0.518
relative viability (NCI-H358; first compound 50 µM): 0.572
relative viability (NCI-H358; first compound 158.11 µM): 0.126
relative viability (NCI-H358; first compound 500 µM): 0.112
relative viability (NCI-H596; first compound 5 µM): 0.723
relative viability (NCI-H596; first compound 15.81 µM): 0.723
relative viability (NCI-H596; first compound 50 µM): 0.633
relative viability (NCI-H596; first compound 158.11 µM): 0.323
relative viability (NCI-H596; first compound 500 µM): 0.0561
relative viability (NCI-H650; first compound 5 µM): 0.404
relative viability (NCI-H650; first compound 15.81 µM): 0.393
relative viability (NCI-H650; first compound 50 µM): 0.366
relative viability (NCI-H650; first compound 158.11 µM): 0.339
relative viability (NCI-H650; first compound 500 µM): 0.359
relative viability (NCI-H661; first compound 5 µM): 0.714
relative viability (NCI-H661; first compound 15.81 µM): 0.726
relative viability (NCI-H661; first compound 50 µM): 0.718
relative viability (NCI-H661; first compound 158.11 µM): 0.399
relative viability (NCI-H661; first compound 500 µM): 0.153
relative viability (NCI-H838; first compound 5 µM): 0.79
relative viability (NCI-H838; first compound 15.81 µM): 0.705
relative viability (NCI-H838; first compound 50 µM): 0.721
relative viability (NCI-H838; first compound 158.11 µM): 0.278
relative viability (NCI-H838; first compound 500 µM): 0.115
relative viability (SK-MES-1; first compound 5 µM): 0.641
relative viability (SK-MES-1; first compound 15.81 µM): 0.635
relative viability (SK-MES-1; first compound 50 µM): 0.556
relative viability (SK-MES-1; first compound 158.11 µM): 0.163
relative viability (SK-MES-1; first compound 500 µM): 0.0936
